# Test results as given in patent publication US5175283A, “Azetidin-2-one derivatives as serine protease inhibitors” (Bristol-Myers Squibb Company, priority 1992, dated 1992).
# Counter-ions that a name gives are not always drawn. Like-named read-outs stand apart in the source and are kept apart here.
# How the values were obtained:
# Assay type in all cases: biochemical
# human α-thrombin [1] = biological target: T1, human α-thrombin (Homo sapiens, UniProt P00734); assay: Enzyme assay for the inhibition of thrombin (s-2238 substrate); details: for IC50: 3 min incubation of drug with enzyme, room temperature; for Thrombin k2 /ki (second order rate constant for inactivation of the enzyme): human α-thrombin, s-2238, pH 7.4, room temperature
# T1 construct: purified human α-thrombin dissolved in thrombin assay buffer
# Description: 1. Enzyme Assays for the Inhibition of Thrombin The following reagents were used in these assays: Thrombin assay buffer: 145 mM NaCl, 5 mM KCl, 30 mM N-2-hydroxyethyl piperazine-N'-2-ethanesulfonic acid, pH 7.4, 1 mg/ml polyethylene glycol (PEG-8000). 3 mM D-Phe-Pip-Arg-p-nitroanilide (s-2238) in H2 O. 3 U/ml purified human α-thrombin dissolved in thrombin assay buffer. Inhibitors to be tested were dissolved in H2 O, methanol, or DMSO just prior to use. Assay Procedure To each well in a 96-well microtiter plate, 270 μl of assay buffer was added. Human α-thrombin (10 μl of 3 U/ml) was added, then 10 μl of inhibitor were added and mixed. The samples were incubated at room temperature for a defined period of time (3 min for initial IC50 determinations). The enzymic reaction was started with 10 μl of 3 mM s-2238 substrate and continued at room temperature. The change in optical density was measured at 405 nm. A kinetic microplate reader (Molecular Devices Corporation Vmax) was used to measure the change in optical density over time. Results are reported in Table 1 as IC50 values, i.e., the drug concentration in mole/liter which caused 50% inhibition of the enzyme activity (after incubation of the drug with the enzyme for 3 min). Alternatively, results are also reported in Table 1 expressed as k2 /ki which is the second order rate constant in per mole per minute for inactivation time of the enzyme [Kitz, et al., J. Biol. Chem., 237, 3245 (1962)].
# [2] = biological target: T2, bovine pancreatic trypsin (Bos taurus, UniProt P00760); assay: Enzyme assay for the inhibition of trypsin (Z-Val-Gly-Arg-pNA substrate)
# T2 construct: purified bovine pancreatic trypsin dissolved in trypsin assay buffer
# T2 sequence (P00760 24-246): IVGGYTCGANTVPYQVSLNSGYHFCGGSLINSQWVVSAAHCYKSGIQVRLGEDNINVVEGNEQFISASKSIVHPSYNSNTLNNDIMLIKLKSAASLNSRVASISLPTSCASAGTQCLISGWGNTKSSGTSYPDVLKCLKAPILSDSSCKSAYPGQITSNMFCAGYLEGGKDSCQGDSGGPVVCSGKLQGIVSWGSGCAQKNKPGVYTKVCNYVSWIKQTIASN
# Description: 2. Enzyme Assays for the Inhibition of Trypsin
# The following reagents were used in these assays:
# Trypsin assay buffer: 2 mM CaCl2, 50 mM Tris/Cl pH 8.0.
# 3 mM Z-Val-Gly-Arg-pNA (Chromzyme TRy) dissolved in H2 O.
# 6 μg/ml of purified bovine pancreatic trypsin dissolved in trypsin assay buffer.
# Inhibitors to be tested were dissolved in H2 O, methanol or DMSO just prior to use.
# To each well in a 96-well microtiter plate, 270 μl of assay buffer was added. Bovine trypsin (10 μl of 6 μg/ml) was added. Inhibitor (10 μl ) was added, mixed, and then incubated at room temperature for 3 min. The enzymic reaction was started with 10 μl of 3 mM Z-Val-Gly-Arg-pNA substrate. The change in optical density was measured at 405 nm at room temperature. A kinetic microplate reader (Molecular Devices Corporation Vmax) was used to measure the change in optical density over time.
# Results are reported in Table 1 as IC50 values, i.e., the drug concentration in mole/liter which caused 50% inhibition of the enzyme activity (after incubation of the drug with the enzyme for 3 min).
# human α-thrombin [3] = biological target: T1, human α-thrombin; assay: Concentration required for doubling thrombin clotting time in human plasma; details: human citrated plasma, 10 U/ml human thrombin; read-out: ED50, drug concentration required to double clotting time
# Description: Procedure for Determining the Concentration Required for Doubling Thrombin Clotting Time--Clotting Time Assays The following reagents were used in these assays: Owren's Veronal Buffer: 125 mM NaCl, 28.4 mM sodium barbital, pH 7.35. Human citrated plasma obtained from human volunteers or citrated plasma obtained from IP-dosed animals (prepared as described below). 10 NIH Units/ml human α-thrombin in thrombin buffer for use with human plasma. […] The blood was centrifuged at […] (480×g) for 15 min at room temperature (using a Sorvall RT 6000B centrifuge). The plasma was removed, pooled, and aliquoted into small tubes which were stored frozen for later use. Clotting Time Measurement Clotting times were determined by pipetting 0.1 ml of Owren's buffer (pre-warmed 37° C.) and 0.1 ml of human or rat plasma into yellow sample cuvettes. For studies with human plasma 10 U/ml human thrombin (10 ml) was placed in the reservoir assembly station of the MLA 700. (Medical Laboratory Automation, Electra 700 Reservoir Assembly). For rat studies, the human thrombin concentration was 25 U/ml. The cuvettes were vortexed and then placed on the MLA 700 sample wheel. The coagulation timer (MLA 700) automatically dispenses 0.1 ml human thrombin into the sample in each cuvette. Detection of the fibrin clot was determined optically by the MLA 700. Studies were performed to determine the concentration of drug which caused a doubling of the clotting time in human plasma. From standard curves of thrombin activity added to the sample versus the clotting time, the concentration of drug which caused a doubling of the thrombin clotting time corresponded to inhibition of approximately 1/2 of the added thrombin clotting activity. Results are reported in Table 1 as ED50 values, i.e., the drug concentration required to double clotting time.
# [4] = 3 min incubation of drug with enzyme, room temperature, pH 8.0, read-out: Trypsin IC50
IC50 (human α-thrombin [1]) [nM],Thrombin k2 /ki (second order rate constant for inactivation of the enzyme) (human α-thrombin [1]),"IC50 [2, 4] [nM]",IC (2-fold clotting time) (human α-thrombin [3]) [µM],IC50 [2] [nM],Structure (SMILES)
210,1.5 × 10^6 m^-1 min^-1,470,3,,"CC(=O)N1C(=O)[C@@H](CCCNC(=N)N)[C@@H]1CCc1ccccc1 (relative stereo) [XV, trans-4-(2-Phenylethyl)-3-guanidinooropyl-1-acetyl-2azetidinone hydrochloride salt]"
12.5,5.6 × 10^6 m^-1 min^-1,36,0.75,,"CCS[C@H]1[C@H](CCCNC(=N)N)C(=O)N1C(C)=O (relative stereo) [VII, trans-4-Ethylthio-3-quanidinopropyl-1-acetyl-2-azetidinone hydrochloride salt]"
1700,8.3 × 10^4 m^-1 min^-1,5,30,,"COC(=O)[C@H]1[C@H](CCCNC(=N)N)C(=O)N1C(=O)Nc1ccccc1 (relative stereo) [V, trans-4-Methoxycarbonyl-3-(3-quanidinopropyl)-1-phenylaminocarbonyl-2-azetidinone hydrochloride salt]"
12,4.2 × 10^7 m^-1 min^-1,,0.34,12,"CC(=O)OC1C(CCCNC(=N)N)C(=O)N1C(C)=O (stereo not drawn) [XX, 4-Acetyloxy-3-quanidinopropyl-1-acetyl-2-azetidinone hydrochloride salt]"
3.2,3.0 × 10^6 m^-1 min^-1,750,15,,"CC(=O)N1C(=O)[C@@H](CCCNC(=N)N)[C@@H]1S(=O)(=O)c1ccccc1 (relative stereo) [VI, trans-4-Phenylsulfonyl-3-guanidinopropyl-1-acetyl-2-azetidine hydrochloride salt]"
3,4.5 × 10^7 m^-1 min^-1,120,80,,"Cc1ccc(S(=O)(=O)N2C(=O)[C@@H](CCCNC(=N)N)[C@@H]2C(=O)N2CCCCC2)cc1 (relative stereo) [XIII, trans-4-(1-Piperidinocarbonyl)-3-guanidinooropyl-1-p-toluenesulfonyl-2-azetidinone hydrochloride salt]"
390,,12,12,,"CC(=O)N1C(=O)[C@@H](CCCNC(=N)N)[C@@H]1C(=O)O (relative stereo) [XIV, trans-4-Carboxy-3-quanidinopropyl-1-acetyl-2-azetidinone hydrochloride salt]"
2,1.9 × 10^7 m^-1 min^-1,40,1.25,,"COC(=O)[C@H]1[C@H](CCCNC(=N)N)C(=O)N1C(C)=O (relative stereo) [II, trans-4-Methoxycarbonyl-3-[3-quanidinopropyl)-1-acetyl-2-azetidinone hydrochloride salt]"
16,2.1 × 10^7 m^-1 min^-1,720,50,,"COC(=O)[C@H]1[C@H](CCCNC(=N)N)C(=O)N1S(=O)(=O)c1cccc2c(N(C)C)cccc12 (relative stereo) [III, trans-4-Methoxycarbonyl-3-(3-guanidinopropyl)-1-[(5-dimethylamino)-1-naphthalenesulfonyl]-2-azetidinone hydrochloride salt]"
25,1.3 × 10^6 m^-1 min^-1,120,0.5,,"CC(=O)N1C(=O)[C@@H](CCCNC(=N)N)[C@@H]1C(=O)Nc1ccc(C)cc1 (relative stereo) [XVI, trans-4-(4-Methylbenzeneaminocarbonyl)-3-guanidinopropyl-1-acetyl-2-azetidinone hydrochloride salt]"
